US9469650B2, “Melampomagnolide B derivatives” (BOARD OF TRUSTEES OF THE UNIVERSITY OF ARKANSAS, priority 2013, dated 2016)

Key:
CCRF-CEM = assay: panel of 60 human tumor cell lines, growth inhibition (Leukemia); conditions: Homo sapiens
K-562 = assay: as above
SR = assay: as above; conditions: Homo sapiens
MDA-MB-435 = assay: panel of 60 human tumor cell lines, growth inhibition (Melanoma); conditions: Homo sapiens
UACC-257 = assay: as above
UACC-62 = assay: as above; conditions: Homo sapiens
SF-268 = assay: panel of 60 human tumor cell lines, growth inhibition (CNS Cancer); conditions: Homo sapiens
SF-539 = assay: as above; conditions: Homo sapiens
COLO 205 = assay: panel of 60 human tumor cell lines, growth inhibition (Colon Cancer); conditions: Homo sapiens
HCT-15 = assay: as above; conditions: Homo sapiens
KM12 = assay: as above
A498 = assay: panel of 60 human tumor cell lines, growth inhibition (Renal Cancer); conditions: Homo sapiens
RXF 393 = assay: as above; conditions: Homo sapiens
MDA-MB-468 = assay: panel of 60 human tumor cell lines, growth inhibition (Breast Cancer); conditions: Homo sapiens
OVCAR-5 = assay: panel of 60 human tumor cell lines, growth inhibition (Ovarian Cancer); conditions: Homo sapiens
OVCAR-8 = assay: as above; conditions: Homo sapiens
HOP-92 = assay: panel of 60 human tumor cell lines, growth inhibition (Non-Small Cell Lung Cancer); conditions: Homo sapiens
NCI-H322M = assay: as above; conditions: Homo sapiens

C=C1C(=O)O[C@H]2[C@H]1CC/C(COC(=O)OCCCN1CCCCC1)=C\CC[C@@]1(C)O[C@@H]21 [JVM 2-26] showed a GI50 (CCRF-CEM) of 1.78 µM, a CC50 (CCRF-CEM; read-out: LC50) of 63.5 µM and an IC (TGI) (CCRF-CEM; read-out: TGI) of 5.72 µM. For the same compound, the GI50 (K-562; Homo sapiens, K562) was 3.27 µM, the CC50 (K-562; Homo sapiens, K562, read-out: LC50) was over 100 µM and the TGI (K-562; K-562) was 1.52E−5. The “Percent Growth” value (K-562; K-562, Log10 Concentration −4.0) was −42%, the “Percent Growth” value (K-562; K-562, Log10 Concentration −5.0) was 9% and the “Percent Growth” value (K-562; K-562, Log10 Concentration −6.0) was 93%. The “Percent Growth” value (K-562; K-562, Log10 Concentration −7.0) was 96. %, the “Percent Growth” value (K-562; K-562, Log10 Concentration −8.0) was 100% and the GI50 (SR) was 2.12 µM. It also gave a CC50 (SR; read-out: LC50) of 83.9 µM, an IC (TGI) (SR; read-out: TGI) of 10.2 µM and a GI50 (MDA-MB-435; MDA-MB-435) of 2.99 µM. The CC50 (MDA-MB-435; MDA-MB-435, read-out: LC50) was 38.5 µM, the IC (TGI) (MDA-MB-435; MDA-MB-435, read-out: TGI) was 13.2 µM and the GI50 (UACC-257; Homo sapiens, UACC-257) was 5.34 µM. For the same compound, the CC50 (UACC-257; Homo sapiens, UACC-257, read-out: LC50) was 45.6 µM, the TGI (UACC-257; UACC-257) was 1.87E−5 and the “Percent Growth” value (UACC-257; UACC-257, Log10 Concentration −4.0) was −94%. The “Percent Growth” value (UACC-257; UACC-257, Log10 Concentration −5.0) was 35%, the “Percent Growth” value (UACC-257; UACC-257, Log10 Concentration −6.0) was 90% and the “Percent Growth” value (UACC-257; UACC-257, Log10 Concentration −7.0) was 67%. For the same compound, the “Percent Growth” value (UACC-257; UACC-257, Log10 Concentration −8.0) was 91%, the GI50 (UACC-62; UACC-62) was 8.05 µM and the CC50 (UACC-62; UACC-62, read-out: LC50) was 47.1 µM. It also gave an IC (TGI) (UACC-62; UACC-62, read-out: TGI) of 11 µM, a GI50 (SF-268; SF-268) of 6.14 µM and a CC50 (SF-268; SF-268, read-out: LC50) of 53.2 µM. It also gave an IC (TGI) (SF-268; SF-268, read-out: TGI) of 20.6 µM, a GI50 (SF-539; SF-539) of 2.39 µM and a CC50 (SF-539; SF-539, read-out: LC50) of 32.1 µM. The IC (TGI) (SF-539; SF-539, read-out: TGI) was 8.7 µM, the GI50 (COLO 205; COLO 205) was 1.7 µM and the CC50 (COLO 205; COLO 205, read-out: LC50) was 7.07 µM. It also gave an IC (TGI) (COLO 205; COLO 205, read-out: TGI) of 3.47 µM, a GI50 (HCT-15; HCT-15) of 2.39 µM and a CC50 (HCT-15; HCT-15, read-out: LC50) of 37 µM. The IC (TGI) (HCT-15; HCT-15, read-out: TGI) was 10.6 µM, the GI50 (KM12; Homo sapiens, KM12) was 15.5 µM and the CC50 (KM12; Homo sapiens, KM12, read-out: LC50) was 63.3 µM. For the same compound, the TGI (KM12; KM12) was 3.13E−5, the “Percent Growth” value (KM12; KM12, Log10 Concentration −4.0) was −83% and the “Percent Growth” value (KM12; KM12, Log10 Concentration −5.0) was 81%. For the same compound, the “Percent Growth” value (KM12; KM12, Log10 Concentration −6.0) was 97%, the “Percent Growth” value (KM12; KM12, Log10 Concentration −7.0) was 94% and the “Percent Growth” value (KM12; KM12, Log10 Concentration −8.0) was 95%. It also gave a GI50 (A498; A498) of 10.1 µM, a CC50 (A498; A498, read-out: LC50) of 47 µM and an IC (TGI) (A498; A498, read-out: TGI) of 21.8 µM. It also gave a GI50 (RXF 393; RXF 393, RXF 393) of 2.35 µM, a CC50 (RXF 393; RXF 393, read-out: LC50) of 34 µM and an IC (TGI) (RXF 393; RXF 393, read-out: TGI) of 8.65 µM. For the same compound, the GI50 (MDA-MB-468; MDA-MB-468) was 0.601 µM, the CC50 (MDA-MB-468; MDA-MB-468, read-out: LC50) was 10.5 µM and the IC (TGI) (MDA-MB-468; MDA-MB-468, read-out: TGI) was 2.78 µM. The GI50 (OVCAR-5; OVCAR-5) was 10.1 µM, the CC50 (OVCAR-5; OVCAR-5, read-out: LC50) was 50.9 µM and the IC (TGI) (OVCAR-5; OVCAR-5, read-out: TGI) was 22.7 µM. For the same compound, the GI50 (OVCAR-8; OVCAR-8) was 10.3 µM, the CC50 (OVCAR-8; OVCAR-8, read-out: LC50) was 53.3 µM and the IC (TGI) (OVCAR-8; OVCAR-8, read-out: TGI) was 13.5 µM. It also gave a GI50 (HOP-92; HOP-92, HOP-92) of 1.96 µM, a CC50 (HOP-92; HOP-92, read-out: LC50) of 31.4 µM and an IC (TGI) (HOP-92; HOP-92, read-out: TGI) of 7.47 µM. For the same compound, the GI50 (NCI-H322M) was 17.2 µM, the CC50 (NCI-H322M; read-out: LC50) was over 100 µM and the IC (TGI) (NCI-H322M; read-out: TGI) was 54.4 µM.
